Laboratory results as given in the supplement of paper PMC5908809.

Columns and labels:
[1] = tested on: normal NK cells expanded with K562-aAPC; test: percent inhibition of viability; higher = more inhibition; conditions: 72 h, IL-2 2.5 ng/mL
Protocol: (§1)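 Drug sensitivity and resistance testing on K562-aAPC-expanded normal NK cells: 5 concentrations (10-fold steps over a 10,000-fold range), 72 h at 37 °C, viability by CellTiter-Glo normalised to DMSO and benzethonium chloride controls; DSS from the fitted curve.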

DERL-7 (IL-2 2.5 ng/mL) [2] = test: as above; conditions: 72 h
IMC-1 (IL-2 20 ng/mL) [3] = test: as above; conditions: 72 h
KAI3 (IL-2 2.5 ng/mL) [4] = test: as above; conditions: 72 h
KHYG-1 (IL-2 2.5 ng/mL) [5] = test: as above; conditions: 72 h
NK-92 (IL-2 2.5 ng/mL) [6] = test: as above; conditions: 72 h
NK-YS (IL-2 2.5 ng/mL) [7] = test: as above; conditions: 72 h
NKL (IL-2 2.5 ng/mL) [8] = test: as above; conditions: 72 h
SNK-6 (IL-2 2.5 ng/mL) [9] = test: as above; conditions: 72 h
YT (IL-2 2.5 ng/mL) [10] = test: as above; conditions: 72 h
[11] = tested on: normal primary NK cells, pool 1 (3 donors) (IL-2 2.5 ng/mL); test: as above; conditions: 72 h
[12] = tested on: normal primary NK cells, pool 1 (3 donors), resting (IL-2 0 ng/mL); test: as above; conditions: 72 h
[13] = tested on: normal primary NK cells, pool 2 (3 donors) (IL-2 2.5 ng/mL); test: as above; conditions: 72 h
[14] = tested on: normal primary NK cells, pool 3 (3 donors) (IL-2 2.5 ng/mL); test: as above; conditions: 72 h
[15] = tested on: normal NK cells expanded with K562-aAPC; test: drug sensitivity score (DSS) (DSS units); higher = more sensitive; extreme values may be limits of the assay; conditions: 72 h; IL-2 2.5 ng/mL
Protocol: as §1

DERL-7 (IL-2 2.5 ng/mL) [16] = test: as above; conditions: 72 h
IMC-1 (IL-2 20 ng/mL) [17] = test: as above; conditions: 72 h
KAI3 (IL-2 2.5 ng/mL) [18] = test: as above; conditions: 72 h
KHYG-1 (IL-2 2.5 ng/mL) [19] = test: as above; conditions: 72 h
NK-92 (IL-2 2.5 ng/mL) [20] = test: as above; conditions: 72 h
NK-YS (IL-2 2.5 ng/mL) [21] = test: as above; conditions: 72 h
NKL (IL-2 2.5 ng/mL) [22] = test: as above; conditions: 72 h
SNK-6 (IL-2 2.5 ng/mL) [23] = test: as above; conditions: 72 h
YT (IL-2 2.5 ng/mL) [24] = test: as above; conditions: 72 h
[25] = tested on: normal primary NK cells, pool 1 (3 donors) (IL-2 2.5 ng/mL); test: as above; conditions: 72 h
[26] = tested on: normal primary NK cells, pool 1 (3 donors), resting (IL-2 0 ng/mL); test: as above; conditions: 72 h
[27] = tested on: normal primary NK cells, pool 2 (3 donors) (IL-2 2.5 ng/mL); test: as above; conditions: 72 h
[28] = tested on: normal primary NK cells, pool 3 (3 donors) (IL-2 2.5 ng/mL); test: as above; conditions: 72 h

CC[C@]1(O)C[C@@H]2CN(CCc3c([nH]c4ccccc34)[C@@](C(=O)OC)(c3cc4c(cc3OC)N(C)[C@H]3[C@@](O)(C(=O)OC)[C@H](OC(C)=O)[C@]5(CC)C=CCN6CC[C@]43[C@@H]65)C2)C1 [Vinblastine] (max concentration tested 1000 nM)
percent inhibition of viability [%]
Conditions | 0.1 nM | 1 nM | 10 nM | 100 nM | 1000 nM
DERL-7 (IL-2 2.5 ng/mL) [2] | -13.4 | -1.94 | 99.7 | 101 | 99.8
IMC-1 (IL-2 20 ng/mL) [3] | -4.96 | -7.43 | 99.5 | 101 | 100
KAI3 (IL-2 2.5 ng/mL) [4] | -16.5 | -7.66 | 45.5 | 71.1 | 82.4
KHYG-1 (IL-2 2.5 ng/mL) [5] | -4.6 | -0.24 | 96.7 | 108 | 110
NK-92 (IL-2 2.5 ng/mL) [6] | -11.5 | -1.18 | 64.9 | 100 | 107
NK-YS (IL-2 2.5 ng/mL) [7] | -5.37 | -3.92 | 70.7 | 69.4 | 90.8
NKL (IL-2 2.5 ng/mL) [8] | -3.5 | 4.6 | 90.8 | 97.5 | 102
SNK-6 (IL-2 2.5 ng/mL) [9] | -13.4 | -12.2 | 83.3 | 91.1 | 97.8
YT (IL-2 2.5 ng/mL) [10] | -6.33 | -5.56 | 88.8 | 105 | 107
[1] | -6.33 | -1.7 | 26.7 | 60.2 | 63
[11] | -10.7 | 7.03 | 4.09 | 14.3 | 22.7
[12] | -21.5 | 2.75 | -2.96 | 17.9 | 28.1
[13] | -6.34 | 7.02 | 16.6 | 16.1 | 23.6
[14] | -4.89 | 5.36 | 12.3 | 3.78 | 13.7

Conditions | drug sensitivity score
DERL-7 (IL-2 2.5 ng/mL) [16] | 30.2
IMC-1 (IL-2 20 ng/mL) [17] | 29.8
KAI3 (IL-2 2.5 ng/mL) [18] | 20.6
KHYG-1 (IL-2 2.5 ng/mL) [19] | 30
NK-92 (IL-2 2.5 ng/mL) [20] | 25.6
NK-YS (IL-2 2.5 ng/mL) [21] | 24.6
NKL (IL-2 2.5 ng/mL) [22] | 29.5
SNK-6 (IL-2 2.5 ng/mL) [23] | 27.2
YT (IL-2 2.5 ng/mL) [24] | 28.4
[15] | 14.7
[25] | 1.97
[26] | 3.19
[27] | 4.33
[28] | 0.31

O=c1[nH]c(=O)n([C@H]2C[C@H](O)[C@@H](CO)O2)cc1F [Floxuridine] (max concentration tested 10000 nM)
percent inhibition of viability [%]
Conditions | 1 nM | 10 nM | 100 nM | 1000 nM | 10000 nM
DERL-7 (IL-2 2.5 ng/mL) [2] | -7.14 | 68.8 | 44.1 | 69.8 | 94.3
IMC-1 (IL-2 20 ng/mL) [3] | -2.91 | -1.68 | 33.5 | 96.1 | 95.4
KAI3 (IL-2 2.5 ng/mL) [4] | -6.31 | 31.3 | 63.4 | 63.7 | 45.6
KHYG-1 (IL-2 2.5 ng/mL) [5] | 0.05 | 58.9 | 96.8 | 99.1 | 95.1
NK-92 (IL-2 2.5 ng/mL) [6] | -16.2 | 25.2 | 72.5 | 82.6 | 78.8
NK-YS (IL-2 2.5 ng/mL) [7] | -4.95 | 13.6 | 73.5 | 84 | 78.7
NKL (IL-2 2.5 ng/mL) [8] | -14.5 | 15.7 | 48.8 | 68.5 | 82.9
SNK-6 (IL-2 2.5 ng/mL) [9] | 15.3 | 9.27 | 54 | 91.8 | 89.4
YT (IL-2 2.5 ng/mL) [10] | -3.94 | 0.97 | 9.92 | 50.2 | 57.9
[1] | -4.55 | -4.54 | 25.1 | 39.5 | 43.4
[11] | -6.27 | -7.98 | -5.58 | 6.75 | 5.43
[12] | -14.4 | -13.5 | -18.7 | 8.19 | 9.19
[13] | -16.1 | -13.4 | -7.65 | -1.05 | 8.12
[14] | -14 | -7.11 | -9.62 | -2.43 | -3.12

Conditions | drug sensitivity score
DERL-7 (IL-2 2.5 ng/mL) [16] | 25.9
IMC-1 (IL-2 20 ng/mL) [17] | 22
KAI3 (IL-2 2.5 ng/mL) [18] | 24
KHYG-1 (IL-2 2.5 ng/mL) [19] | 37.2
NK-92 (IL-2 2.5 ng/mL) [20] | 27.2
NK-YS (IL-2 2.5 ng/mL) [21] | 25.9
NKL (IL-2 2.5 ng/mL) [22] | 20.2
SNK-6 (IL-2 2.5 ng/mL) [23] | 23.3
YT (IL-2 2.5 ng/mL) [24] | 10.4
[15] | 10.9
[25] | 0
[26] | 0
[27] | 0
[28] | 0
